Results as given in patent US20230017786A1, “DEXTR[…] A DISEASE-MODIFYING TREATMENT FOR NEUROPSYCHIATRIC DISORDERS AND DISEASES” (priority 2020, published 2023).
Values joined by “and” are separate entries in the source; they are usually repeats but may differ in a detail not shown here. Identical values can stand only once.

How the values were obtained:
Format in all cases: cell-based
[1] = target: T1, human NMDA receptor GluN1-GluN2D (Homo sapiens, UniProt O15399+Q05586); experiment: FLIPR calcium assay, quinolinic acid, gentamicin, dextromethadone (Example 5 Part II), GluN1-GluN2D-CHO; conditions: 10 μM glycine; for calcium response (mean±SEM): GluN2D, n=42
T1 construct: expressed in transfected cells; host or cells: CHO
T1 sequence (O15399 28-1336, other chains not shown): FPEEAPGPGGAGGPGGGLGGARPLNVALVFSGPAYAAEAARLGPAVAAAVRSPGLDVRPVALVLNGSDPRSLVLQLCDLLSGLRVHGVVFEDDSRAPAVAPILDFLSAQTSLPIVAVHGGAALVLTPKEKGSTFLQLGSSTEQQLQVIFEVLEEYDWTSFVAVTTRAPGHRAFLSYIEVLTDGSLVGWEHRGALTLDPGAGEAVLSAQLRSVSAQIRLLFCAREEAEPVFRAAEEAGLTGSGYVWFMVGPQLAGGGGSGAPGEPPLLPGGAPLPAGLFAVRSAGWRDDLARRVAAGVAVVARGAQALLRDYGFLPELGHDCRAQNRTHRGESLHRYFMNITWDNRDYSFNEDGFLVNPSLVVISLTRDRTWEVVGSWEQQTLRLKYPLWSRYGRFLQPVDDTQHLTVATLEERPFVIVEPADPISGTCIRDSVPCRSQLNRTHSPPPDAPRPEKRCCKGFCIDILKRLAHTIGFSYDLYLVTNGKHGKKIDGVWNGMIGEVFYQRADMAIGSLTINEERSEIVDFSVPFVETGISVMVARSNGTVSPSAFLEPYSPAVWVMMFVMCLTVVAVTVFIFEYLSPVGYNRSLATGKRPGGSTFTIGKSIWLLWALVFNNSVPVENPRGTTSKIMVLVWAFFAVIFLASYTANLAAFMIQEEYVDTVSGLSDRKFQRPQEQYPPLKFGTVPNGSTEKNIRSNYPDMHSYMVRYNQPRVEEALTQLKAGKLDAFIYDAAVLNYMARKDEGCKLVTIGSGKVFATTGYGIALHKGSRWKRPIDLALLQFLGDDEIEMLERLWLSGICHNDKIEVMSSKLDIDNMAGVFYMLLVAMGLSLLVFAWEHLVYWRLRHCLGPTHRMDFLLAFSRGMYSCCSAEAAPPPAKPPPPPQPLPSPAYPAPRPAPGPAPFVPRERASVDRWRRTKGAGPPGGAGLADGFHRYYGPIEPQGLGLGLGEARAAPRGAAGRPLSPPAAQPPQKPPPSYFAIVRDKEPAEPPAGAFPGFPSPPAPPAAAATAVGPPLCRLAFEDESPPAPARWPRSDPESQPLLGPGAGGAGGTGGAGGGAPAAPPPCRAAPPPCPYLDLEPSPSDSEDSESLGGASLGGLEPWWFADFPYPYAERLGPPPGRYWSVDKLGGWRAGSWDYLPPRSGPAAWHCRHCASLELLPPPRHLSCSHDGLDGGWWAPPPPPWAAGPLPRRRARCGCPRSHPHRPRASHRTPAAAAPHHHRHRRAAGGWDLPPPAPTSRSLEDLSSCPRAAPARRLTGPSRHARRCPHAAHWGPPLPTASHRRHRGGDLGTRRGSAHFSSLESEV
Experimental: (§1) Quinolinic acid or gentamicin CRCs were also produced, in presence of 10 μM glycine.
(§2) Test items were evaluated in FLIPR for their ability to modulate, alone or in combination, calcium entry in presence of […], using four CHO cell lines expressing diheteromeric human NMDA receptor (NMDAR): GluN-/GluN2A-CHO, GluN1-GluN2B-CHO, GluN1-GluN2C-CHO, GluN1-GluN2D-CHO.
(§3) The first aim of the study was to evaluate quinolinic acid or gentamicin CRC effect in the presence of 10 μM glycine.
(§4) FLIPR determination of intracellular calcium level was used as a read-out for NMDAR activation.
(§5) 400× compound plate was stored at −20° C. till FLIPR experimental day.
(§6) A 4× compound plate was generated from 400× compound plate by addition of up to 30 μl/well of compound buffer on FLIPR experimental day.
(§7) A FLIPR system was used to monitor intracellular calcium level in NMDAR cell lines, pre-loaded for 1 hour with Fluo-4, and then washed with assay buffer.
(§8) Y=Bottom+(Top−Bottom)/(1+10^((LogEC50−X)*HillSlope))
(§9) Test item CRC data were plotted by Prism 8 GraphPad software, in the different experimental conditions. And, column analysis, performed by Prism 8 GraphPad software, was one way ANOVA followed by Tukey's multiple comparisons test, with a single pooled variance.

[2] = target: T2, human NMDA receptor GluN1-GluN2B (Homo sapiens, UniProt Q05586+Q13224); experiment: FLIPR calcium assay, quinolinic acid, gentamicin, dextromethadone (Example 5 Part II), GluN1-GluN2B-CHO; conditions: 10 μM glycine, GluN2B, n=42
T2 construct: expressed in transfected cells; host or cells: CHO
T2 sequence (Q13224 27-1484, other chains not shown): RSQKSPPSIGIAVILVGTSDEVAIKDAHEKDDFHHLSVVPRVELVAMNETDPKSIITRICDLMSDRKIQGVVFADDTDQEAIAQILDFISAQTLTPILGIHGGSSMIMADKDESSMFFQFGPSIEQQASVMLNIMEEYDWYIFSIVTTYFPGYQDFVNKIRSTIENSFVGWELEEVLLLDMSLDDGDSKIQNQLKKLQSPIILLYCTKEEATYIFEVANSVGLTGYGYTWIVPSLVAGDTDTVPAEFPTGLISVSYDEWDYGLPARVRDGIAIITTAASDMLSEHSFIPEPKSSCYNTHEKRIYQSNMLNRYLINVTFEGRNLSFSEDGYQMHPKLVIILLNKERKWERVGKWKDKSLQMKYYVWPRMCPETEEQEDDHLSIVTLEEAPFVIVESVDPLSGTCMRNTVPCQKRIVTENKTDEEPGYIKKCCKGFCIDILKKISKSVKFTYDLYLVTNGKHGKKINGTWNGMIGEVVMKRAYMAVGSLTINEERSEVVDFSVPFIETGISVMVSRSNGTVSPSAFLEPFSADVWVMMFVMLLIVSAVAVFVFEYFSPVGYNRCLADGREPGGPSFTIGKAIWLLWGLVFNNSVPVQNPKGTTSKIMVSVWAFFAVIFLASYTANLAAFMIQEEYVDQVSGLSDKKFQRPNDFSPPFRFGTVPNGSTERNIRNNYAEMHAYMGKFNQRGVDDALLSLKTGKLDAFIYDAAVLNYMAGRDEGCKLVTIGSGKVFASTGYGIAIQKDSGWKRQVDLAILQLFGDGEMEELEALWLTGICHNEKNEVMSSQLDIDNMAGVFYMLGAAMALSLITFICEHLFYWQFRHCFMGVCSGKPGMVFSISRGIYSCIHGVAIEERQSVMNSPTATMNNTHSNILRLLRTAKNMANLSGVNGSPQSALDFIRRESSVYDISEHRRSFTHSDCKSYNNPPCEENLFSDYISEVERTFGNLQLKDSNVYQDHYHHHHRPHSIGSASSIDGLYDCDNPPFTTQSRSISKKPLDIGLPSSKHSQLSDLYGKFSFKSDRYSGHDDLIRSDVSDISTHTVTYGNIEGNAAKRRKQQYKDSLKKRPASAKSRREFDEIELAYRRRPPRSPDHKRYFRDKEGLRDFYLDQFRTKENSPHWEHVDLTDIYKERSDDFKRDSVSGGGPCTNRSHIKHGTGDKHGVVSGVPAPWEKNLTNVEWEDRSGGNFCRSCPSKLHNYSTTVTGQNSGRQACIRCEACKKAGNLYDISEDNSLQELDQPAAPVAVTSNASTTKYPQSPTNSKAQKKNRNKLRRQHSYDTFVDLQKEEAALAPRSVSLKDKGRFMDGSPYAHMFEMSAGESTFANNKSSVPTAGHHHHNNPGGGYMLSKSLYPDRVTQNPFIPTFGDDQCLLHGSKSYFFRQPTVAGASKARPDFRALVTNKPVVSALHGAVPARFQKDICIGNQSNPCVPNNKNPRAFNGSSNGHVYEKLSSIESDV
Experimental: as §1, §2, §3, §4, §5, §6, §7, §8, §9

[3] = target: T3, human NMDA receptor GluN1-GluN2A (Homo sapiens, UniProt Q05586+Q12879); experiment: FLIPR calcium assay, quinolinic acid, gentamicin, dextromethadone (Example 5 Part II), GluN1-GluN2A-CHO; parameters: calcium response (mean±SEM): unit not given here; conditions: 10 μM glycine, GluN2A, n=42
T3 construct: expressed in transfected cells; host or cells: CHO
T3 sequence (Q12879 23-1464, other chains not shown): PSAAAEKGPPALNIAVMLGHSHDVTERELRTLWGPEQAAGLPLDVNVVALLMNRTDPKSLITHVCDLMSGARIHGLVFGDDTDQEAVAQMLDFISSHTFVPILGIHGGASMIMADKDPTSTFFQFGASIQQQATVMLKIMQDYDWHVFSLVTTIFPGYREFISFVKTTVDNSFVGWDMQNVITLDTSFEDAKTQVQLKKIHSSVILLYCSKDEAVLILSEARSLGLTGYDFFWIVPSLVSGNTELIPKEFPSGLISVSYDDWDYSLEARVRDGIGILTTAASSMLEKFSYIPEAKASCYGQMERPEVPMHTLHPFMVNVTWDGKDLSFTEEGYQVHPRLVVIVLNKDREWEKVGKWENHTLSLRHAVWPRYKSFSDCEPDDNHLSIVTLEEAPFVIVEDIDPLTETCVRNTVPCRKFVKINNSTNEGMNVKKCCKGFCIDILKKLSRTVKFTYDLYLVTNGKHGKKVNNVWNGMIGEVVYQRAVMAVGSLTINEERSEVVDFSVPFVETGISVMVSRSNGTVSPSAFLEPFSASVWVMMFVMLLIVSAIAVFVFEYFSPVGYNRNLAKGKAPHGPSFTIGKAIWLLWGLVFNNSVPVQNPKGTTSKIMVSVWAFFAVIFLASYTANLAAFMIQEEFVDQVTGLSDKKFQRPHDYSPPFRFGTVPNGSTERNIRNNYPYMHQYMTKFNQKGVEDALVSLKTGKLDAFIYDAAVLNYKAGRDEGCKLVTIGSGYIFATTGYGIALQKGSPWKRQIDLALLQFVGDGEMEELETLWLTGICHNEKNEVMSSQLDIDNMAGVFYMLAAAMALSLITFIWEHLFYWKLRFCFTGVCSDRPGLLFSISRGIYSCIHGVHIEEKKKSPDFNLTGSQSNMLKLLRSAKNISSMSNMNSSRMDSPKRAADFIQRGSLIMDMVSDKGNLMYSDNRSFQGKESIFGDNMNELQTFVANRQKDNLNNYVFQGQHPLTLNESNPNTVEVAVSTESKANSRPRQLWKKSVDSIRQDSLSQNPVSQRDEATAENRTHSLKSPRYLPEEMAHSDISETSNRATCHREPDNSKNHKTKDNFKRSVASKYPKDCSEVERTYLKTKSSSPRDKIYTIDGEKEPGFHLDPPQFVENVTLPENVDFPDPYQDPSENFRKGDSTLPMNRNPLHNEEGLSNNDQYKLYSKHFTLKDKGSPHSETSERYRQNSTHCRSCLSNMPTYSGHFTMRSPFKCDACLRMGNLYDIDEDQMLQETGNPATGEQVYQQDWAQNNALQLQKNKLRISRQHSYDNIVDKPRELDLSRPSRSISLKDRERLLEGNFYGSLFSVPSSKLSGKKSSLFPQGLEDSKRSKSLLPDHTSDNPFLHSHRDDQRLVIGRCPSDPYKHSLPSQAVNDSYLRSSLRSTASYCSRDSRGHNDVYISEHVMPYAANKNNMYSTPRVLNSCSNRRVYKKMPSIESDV
Experimental: as §1, §2, §3, §4, §5, §6, §7, §8, §9

[4] = target: T4, human NMDA receptor GluN1-GluN2C (Homo sapiens, UniProt Q05586+Q14957); experiment: FLIPR calcium assay, quinolinic acid, gentamicin, dextromethadone (Example 5 Part II), GluN1-GluN2C-CHO; conditions: 10 μM glycine; for calcium response (mean±SEM): GluN2C, n=42
T4 construct: expressed in transfected cells; host or cells: CHO
Experimental: as §1, §2, §3, §4, §5, §6, §7, §8, §9

[5] = target: T4, human NMDA receptor GluN1-GluN2C; experiment: FLIPR calcium assay, test item effect on L-glutamate CRC, GluN1-GluN2C-CHO
Experimental: as §4
(§10) 400× compound plate was stored at −20° C. until FLIPR experimental day.
(§11) 4× compound plate was generated from 400× compound plate by addition of up to 30 μl/well of compound buffer on FLIPR experimental day.
as §7
(§12) Y=Bottom+(Top−Bottom)/(1+10^((LogEC50−Log[A])*HillSlope))

[6] = target: T2, human NMDA receptor GluN1-GluN2B; experiment: cell-based
Experimental: as §4, §10, §11, §7, §12

[7] = target: T1, human NMDA receptor GluN1-GluN2D; experiment: FLIPR calcium assay, test item effect on L-glutamate CRC, GluN1-GluN2D-CHO
Experimental: as §4, §10, §11, §7, §12

[8] = target: T3, human NMDA receptor GluN1-GluN2A; experiment: FLIPR calcium assay, test item effect on L-glutamate CRC, GluN1-GluN2A-CHO
Experimental: as §4, §10, §11, §7, §12

[9] = L-glutamate alone, 10 μM glycine
[10] = calculated from EC50 and Hill slope

Q: For `N[C@@H](CCC(=O)O)C(=O)O` [L-glutamate, L-glutamic acid], which “calcium response (mean±SEM)” value ([1]; 0.04 μM L-Glu) is on record?
A: The value was 18 ± 1.2.

Q: What about the “calcium response (mean±SEM)” value ([1]; 0.2 μM L-Glu) of the same compound?
A: The value was 92 ± 2.0.

Q: And the “efficacy of 0.2 μM L-glutamate alone” value [1]?
A: The value was 92±2.0%.

Q: What about the “calcium response (mean±SEM)” value ([1]; Table 41: 0.04 μM L-Glu) of the same compound?
A: The value was 18 ± 1.2.

Q: What about the “calcium response (mean±SEM)” value ([1]; Table 43: 0.2 μM L-Glu) of the same compound?
A: Its value is 92 ± 2.0.

Q: What about the “calcium response (mean±SEM)” value ([2]; 0.04 μM L-Glu) of the same compound?
A: Its value is −0.9 ± 0.6.

Q: What about the “calcium response (mean±SEM)” value ([2]; 0.2 μM L-Glu) of the same compound?
A: Its value is 18 ± 1.2.

Q: What about the “calcium response (mean±SEM)” value ([2]; Table 41: 0.04 μM L-Glu) of the same compound?
A: Its value is 0.9 ± 0.6.

Q: And the “calcium response (mean±SEM)” value ([2]; Table 43: 0.2 μM L-Glu)?
A: Its value is 18 ± 1.2.

Q: What about the “calcium response (mean±SEM)” value ([3]; 0.04 μM L-Glu) of the same compound?
A: The value was 1.7 ± 0.3.

Q: And the “calcium response (mean±SEM)” value ([3]; 0.2 μM L-Glu)?
A: The value was 22 ± 0.7.

Q: And the “calcium response (mean±SEM)” value ([3]; Table 41: 0.04 μM L-Glu)?
A: The value was 1.7 ± 0.3.

Q: And the “calcium response (mean±SEM)” value ([3]; Table 43: 0.2 μM L-Glu)?
A: The value was 22 ± 0.7.

Q: What about the “calcium response (mean±SEM)” value ([4]; 0.04 μM L-Glu) of the same compound?
A: The value was −1.2 ± 0.6.

Q: And the “calcium response (mean±SEM)” value ([4]; 0.2 μM L-Glu)?
A: The value was 30 ± 1.7.

Q: What about the “intracellular calcium increase elicited by 0.2 μM L-glutamate” value ([4]; L-glutamate alone) of the same compound?
A: The value was 30±1.7%.

Q: And the “calcium response (mean±SEM)” value ([4]; Table 41: 0.04 μM L-Glu)?
A: The value was −1.2 ± 0.6.

Q: And the “calcium response (mean±SEM)” value ([4]; Table 43: 0.2 μM L-Glu)?
A: The value was 30 ± 1.7.

Q: What about the Bottom [5, 9] of the same compound?
A: The Bottom was 0.88.

Q: What about the HillSlope [5, 9] of the same compound?
A: Its HillSlope is 1.5.

Q: And the LogEC50 [5, 9]?
A: The LogEC50 was −7.1.

Q: What about the Span [5, 9] of the same compound?
A: Its Span is 105.

Q: What about the Top [5, 9] of the same compound?
A: The Top was 106.

Q: And the “ECF, F=5” value [5, 10]?
A: Its value is 120 nM.

Q: And the “ECF, F=10” value [5, 10]?
A: Its value is 200 nM.

Q: And the “ECF, F=20” value [5, 10]?
A: Its value is 350 nM.

Q: And the “ECF, F=30” value [5, 10]?
A: Its value is 500 nM.

Q: What about the “ECF, F=40” value [5, 10] of the same compound?
A: The value was 660 nM.

Q: What about the “ECF, F=90” value [5, 10] of the same compound?
A: The value was 3.76 µM.

Q: And the “ECF, F=95” value [5, 10]?
A: Its value is 6.19 µM.

Q: What about the “ECF, F=99 (maximal effect)” value [5, 10] of the same compound?
A: The value was 19 µM.

Q: What about the Bottom [6] of the same compound?
A: Its Bottom is 1.7.

Q: What about the “ECF, F=5” value [6] of the same compound?
A: The value was 140 nM.

Q: What about the “ECF, F=10” value [6] of the same compound?
A: Its value is 240 nM.

Q: What about the “ECF, F=20” value [6] of the same compound?
A: The value was 450 nM.

Q: And the “ECF, F=30” value [6]?
A: The value was 680 nM.

Q: And the “ECF, F=40” value [6]?
A: The value was 950 nM.

Q: What about the “ECF, F=90” value [6] of the same compound?
A: Its value is 7.05 µM.

Q: What about the “ECF, F=95” value [6] of the same compound?
A: The value was 13 µM.

Q: And the “ECF, F=99 (maximal effect)” value [6]?
A: Its value is 45 µM.

Q: What about the HillSlope [6] of the same compound?
A: The HillSlope was 1.3.

Q: And the Span [6]?
A: The Span was 109.

Q: And the Top [6]?
A: The Top was 111.

Q: What about the Bottom [7, 9] of the same compound?
A: Its Bottom is 5.3.

Q: And the HillSlope [7, 9]?
A: The HillSlope was 1.6.

Q: What about the LogEC50 [7, 9] of the same compound?
A: Its LogEC50 is −7.5.

Q: And the Span [7, 9]?
A: Its Span is 99.

Q: What about the Top [7, 9] of the same compound?
A: Its Top is 105.

Q: And the “ECF, F=5” value [7, 10]?
A: The value was 54 nM.

Q: What about the “ECF, F=10” value [7, 10] of the same compound?
A: The value was 86 nM.

Q: And the “ECF, F=20” value [7, 10]?
A: The value was 140 nM.

Q: What about the “ECF, F=30” value [7, 10] of the same compound?
A: The value was 200 nM.

Q: And the “ECF, F=40” value [7, 10]?
A: The value was 260 nM.

Q: What about the “ECF, F=90” value [7, 10] of the same compound?
A: Its value is 1.34 µM.

Q: What about the “ECF, F=95” value [7, 10] of the same compound?
A: The value was 2.14 µM.

Q: And the “ECF, F=99 (maximal effect)” value [7, 10]?
A: Its value is 6 µM and 6.01 µM.

Q: What about the Bottom [8, 9] of the same compound?
A: Its Bottom is −0.62.

Q: And the HillSlope [8, 9]?
A: The HillSlope was 1.0.

Q: What about the Span [8, 9] of the same compound?
A: Its Span is 107.

Q: What about the Top [8, 9] of the same compound?
A: Its Top is 106.

Q: And the “ECF, F=5” value [8, 10]?
A: Its value is 160 nM.

Q: And the “ECF, F=10” value [8, 10]?
A: Its value is 280 nM.

Q: What about the “ECF, F=20” value [8, 10] of the same compound?
A: Its value is 630 nM.

Q: What about the “ECF, F=30” value [8, 10] of the same compound?
A: Its value is 1.07 µM.

Q: What about the “ECF, F=40” value [8, 10] of the same compound?
A: Its value is 1.67 µM.

Q: And the “ECF, F=90” value [8, 10]?
A: Its value is 23 µM.

Q: What about the “ECF, F=95” value [8, 10] of the same compound?
A: The value was 48 µM.

Q: And the “ECF, F=99 (maximal effect)” value [8, 10]?
A: The value was 250 µM.
